Assay results taken from ChEMBL document CHEMBL3507680, “University of Dundee, Gates Library screen for HepG2 cell viability”.

Assay: Human HepG2 cell viability assay in 384 well format
Format: toxicity, cell-based
Parameters: dose 125 nL, time 70.5 hour; concentration not given beside the values
Conditions: HepG2 cells, read-out: Inhibition

Structure (SMILES) | cytotoxicity at 70.5 h [%]
CN(C(=O)C1CCC1)C1CCN(c2ccccc2Cl)C1=O (stereo not drawn) | -26.5
c1cnn(CCNCc2cnc(N3CCCC3)nc2)c1 | -9.32
Cc1nccn1CCCNc1ncccc1C#N | -13.8
Cn1cc(NC(=O)Nc2cccc3cccnc23)ccc1=O | 53.3
Brc1cnc(NCc2ccccc2N2CCOCC2)nc1 | -1.21
Cc1ccnc(NCc2ccccc2N2CCOCC2)n1 | -16.7
COc1c(C)cnc(CSc2nnc(C)s2)c1C | -5.43
CC(=O)Nc1cc(C(=O)N2CCOCC2c2ccc(C)o2)ccc1F (stereo not drawn) | -6.36
Cc1nn(C)c(Cl)c1C1CCCN1c1ncnc2sccc12 (stereo not drawn) | -1.91
Cc1cnn(CCNCc2csc(C)n2)c1 | -5.62
Cc1nn(C)c(C)c1C1COCCN1c1ncnc2sccc12 (stereo not drawn) | -11.4
COc1ncccc1NC(=O)N1CCC(CN2CCOCC2)CC1 | -6.27
O=C(NCc1ccccc1CN1CCC(O)CC1)Nc1ccncc1 | 9.61
CN(Cc1ccc(F)cc1)C(=O)NCC1(N2CCOCC2)CCSC1 (stereo not drawn) | 11.7
Cc1ccccc1C(=O)NCc1ccc(N2CCNC(=O)C2)cc1 | -10.2
CC(=O)c1ccc(OCC(=O)NC(C)CCc2ccco2)cc1 (stereo not drawn) | -18.1
Cc1csc(CNC(=O)NCC(O)c2cccc(Cl)c2)n1 (stereo not drawn) | -11
Cc1ccc(C)c(C(=O)CN2C(=O)c3ccccc3CS2(=O)=O)c1 | -15
Cc1ccccc1C(=O)CN1C(=O)c2ccccc2CS1(=O)=O | 5.68
CC(=O)N(C)c1nc(CN2CCOC(Cn3cccn3)C2)cs1 (stereo not drawn) | -11.7
O=C(NCCOc1ccc(F)c(F)c1)NCc1ccncc1 | -11.2
COCc1noc(C2(c3ccc(OC)cc3)CCOCC2)n1 | -9.29
CCOCC(=O)NC1(c2cccc(Br)c2)CC1 | 13.9

Structure (SMILES) | cytotoxicity at 70.5 h [%]
N#Cc1cc(NC(=O)c2ccsc2)ccc1N1CCC(O)CC1 | -11.8
COc1ccccc1OCC(=O)NS(=O)(=O)c1cc(F)ccc1F | -4.75
N#Cc1cc(NC(=O)C2CC=CC2)ccc1N1CCC(O)CC1 | -0.67
Cc1ccc(-c2nc(CN3CCOC(c4ccccc4)C3)cs2)o1 (stereo not drawn) | -9.61
CCOC(C)c1nc(CN2CCC(CNC(C)=O)CC2)cs1 (stereo not drawn) | -2.36
CN(C)S(=O)(=O)N1CCCC1CC(=O)c1cccs1 (stereo not drawn) | -9.51
COc1cc(C)c(C(C)NC(=O)Nc2nnc(C)s2)cc1OC (stereo not drawn) | -11.5
COc1ccc(OCC(=O)NC(C)c2ccc(F)cc2)c(C(=O)O)c1 (stereo not drawn) | -7
OC(CN1CCN(c2ncccn2)CC1)c1cccc(F)c1 (stereo not drawn) | -9.46
CC(C)N(C)CCCNC(=O)c1cnc(-c2ccccc2)nc1 | 2.52
Cc1ccccc1CN1CCC(NCC2CNc3ccnn3C2)CC1 (stereo not drawn) | 0.228
COc1c(CNC2CCCOc3ccccc32)c(C)nn1C (stereo not drawn) | -9.23
N#Cc1ccc(CNC(=O)NC2CCN(CC(F)F)CC2)cc1 | -9.49
COc1ccc(OCC(=O)NC(C)c2ccccc2)c(C(=O)O)c1 (stereo not drawn) | -7.12
N#Cc1ccnc(N2CCN(CC(O)c3cccc(F)c3)CC2)c1 (stereo not drawn) | -7.6
COc1ccnc(N2CCN(C(=O)c3cnn(C)c3C3CC3)CC2)n1 | -6.28
COc1ccnc(N2CCN(C(=O)c3csc(C(C)C)n3)CC2)n1 | 9.24
Cc1cc2n(n1)CC(CNC1CCN(Cc3ccccc3C)CC1)CN2 (stereo not drawn) | 5.18
Cc1nc(CN2CCC(CNC(=O)Nc3ccccn3)CC2)oc1C | -8.33
COc1ccc(CNC(=O)NC2CCN(CC(F)F)CC2)cc1C | -7.09
CCOc1cc(F)ccc1NS(=O)(=O)c1cc(C)c(C(=O)O)s1 | -8.13
CSCC(C)(O)CNC(=O)c1ccc(Br)cc1F (stereo not drawn) | -5.28
CC(NCc1ccncc1)c1cc(F)ccc1N1CCN(C)CC1 (stereo not drawn) | -4.5

Structure (SMILES) | cytotoxicity at 70.5 h [%]
CCC(C)N(C)CCNC(=O)NCc1cccc(-n2cncn2)c1 (stereo not drawn) | -2.22
Cc1cccc(C(=O)NC2CCN(c3cnn(C)c3)C2=O)n1 (stereo not drawn) | 12.5
Fc1ccc2c(c1)C(NCc1nnc3n1CCCCC3)CCCO2 (stereo not drawn) | 3.88
CC(O)CC(C)(C)CNC(=O)NCc1cccc(-n2cncn2)c1 (stereo not drawn) | -7.73
CC(C)(C)OC(=O)N1CCCC[C@H]1C(=O)NCc1nccs1 | -9.82
O=S(=O)(CCN1CCOC(Cn2cncn2)C1)c1ccccc1 (stereo not drawn) | -17.9
Cc1cnc(CN(Cc2ccccc2)CC(O)c2cccs2)cn1 (stereo not drawn) | 7.82
CSCC(C)(O)CNC(=O)c1ccc(Br)cc1C (stereo not drawn) | -9.56
CC(C)c1noc(CCC(=O)NC(C)c2nnc3n2CCCCC3)n1 (stereo not drawn) | -6.86
Cn1cc(CN(Cc2ccccc2)CC(O)c2cccs2)cn1 (stereo not drawn) | -8.92
OC(CN(Cc1ccccc1)Cc1ccncc1)c1cccs1 (stereo not drawn) | 21.6
Cn1ccnc1CNC1CCCN(Cc2noc(C3CC3)n2)C1 (stereo not drawn) | -3.59
O=C(c1cccnc1-n1cncn1)N1CCc2ccccc2C1 | -10.4
CN(CC(=O)N1CCN(c2ncccn2)CC1)c1ccc(Cl)cn1 | -7.47
CCOc1ccc(C(C)NC(=O)N2CCC(C(N)=O)CC2)cc1OC (stereo not drawn) | -10.4
Cc1nn(C)c(C)c1NC(=O)CN1CCc2c(nc(C(C)C)n2C)C1 | -10.5
COc1ccc(C(=O)NS(=O)(=O)c2cncc(Br)c2)cc1OC | -3.31
CCC(O)CN1CCN(C(=O)c2ccnc(N(C)C)c2)CC1 (stereo not drawn) | -11.3
Cn1cccc1C(=O)N1CCC2(CC1)CN(c1ccccc1)C(=O)CO2 | -14.1
Cn1cc(N2CC3(CCN(C(=O)c4cccn4C)CC3)OCC2=O)cn1 | -12.8
COCCC1COC2(CCN(C(=O)c3ccccc3)CC2)C1 (stereo not drawn) | -7.59
O=C(Cc1ccsc1)N1CCc2ncc(Cn3cccn3)n2CC1 | -13.8
O=C(c1cccs1)N1CCc2ncc(Cn3cncn3)n2CC1 | -13.5

Structure (SMILES) | cytotoxicity at 70.5 h [%]
Cc1cc(C(=O)N2CCC[C@]3(C[C@@H](OCC4CC4)CO3)C2)no1 | -11.6
Cc1cc(C(=O)N2CCC[C@]3(C[C@H](OCC4CC4)CO3)C2)no1 | -0.0994
Cc1nc(NCC2CC2)nc2c1COCC21CCN(CC(=O)N(C)C)C1 (stereo not drawn) | -14.8
Cc1cccc(C(=O)N2CCn3cc(CN4CCCCC4)nc3C2)n1 | -10.3
O=C(c1cocn1)N1CCC[C@]2(C[C@@H](OCC3CC3)CO2)C1 | -7.29
C[C@H]1CN(C(=O)N(C)C)C[C@@]12CCN(c1ccsc1)C2=O | -8.12
CN(Cc1ccncc1)C1CC2(CCN(Cc3ccccn3)CC2)C1 | -6.76
CCOCC(=O)N1CC[C@@H]2O[C@@H](C)C[C@H]2C1 | -11.3
O=C(c1cccs1)N1CCC2(CC1)CN(c1cncnc1)C(=O)CO2 | -12.3
CN(C)[C@@H]1CCN(C(=O)c2ccccn2)[C@H]1Cc1ccncc1 | -13
CCOCC(=O)N1CC[C@H]2O[C@@H](C)C[C@H]2C1 | -12.8
COc1cccc(C(=O)N2CCOC3(CCCN(C(C)=O)C3)C2)c1 (stereo not drawn) | -16.1
COCCC1COC2(CCN(C(=O)c3ccsc3)CC2)C1 (stereo not drawn) | -12.7
COc1ccccc1C(=O)N1CCOC2(CCCN(C(C)=O)C2)C1 (stereo not drawn) | -12.3
CCO[C@@H]1CCN(C(=O)c2cnc(C)cn2)[C@@H]1Cc1cnn(C)c1 | -11.6
COCCO[C@H]1CCN(C(=O)c2ccsc2)[C@H]1Cc1ccncc1 | -9.1
Cn1cc(C[C@H]2[C@@H](O)CCN2C(=O)c2ccc[nH]2)cn1 | -10.8
COCCO[C@H]1CCN(C(=O)c2cnoc2C)[C@H]1Cc1cnn(C)c1 | -5.22
Cc1ncnc2c1CCN(C(=O)c1cccn1C)CC2 | -5.38
Cn1cccc1C(=O)N1CCc2ncnc(N3CCOCC3)c2CC1 | -9.14
Cc1cc(CN2CC[C@H]3C(=O)N(c4cccnc4)CCO[C@H]3C2)no1 | -4.94
COCC1CN(C(=O)Cc2ccsc2)Cc2c1cnn2C (stereo not drawn) | 25.8
O=C(c1ccoc1)N1CCn2cnc(COCC3CC3)c2C1 | 4.58

Structure (SMILES) | cytotoxicity at 70.5 h [%]
CNC(=O)[C@@]12CCO[C@@H]1CCN(S(=O)(=O)c1cc(C)cc(C)c1)C2 | -13.2
O=C(c1cccs1)N1CC[C@H]2[C@@H]1CCC(=O)N2c1cccnc1 | -11.5
CCCNC(c1cccnc1)c1ccc(F)c(C)c1 (stereo not drawn) | -13.4
O=C(c1ccc[nH]1)N1CCn2cc(Cn3cccn3)nc2C1 | -8.4
Cc1cccc(C(=O)N2CCC[C@]3(C[C@@H](OCC4CC4)CO3)C2)n1 | -13.9
O=C(CC1CC1)N1CCc2ncc(Cn3cncn3)n2CC1 | -14.1
COCCC1COC2(CCN(C(=O)c3cccnc3)CC2)C1 (stereo not drawn) | -13
CC(C)CCN1C2(CCN(Cc3nccs3)C2)c2ccccc2S1(=O)=O (stereo not drawn) | -11.4
COCCO[C@H]1CCN(C(=O)c2ccno2)[C@H]1Cc1ccncc1 | -11.9
Cc1ccccc1C(=O)N1Cc2c(Cn3ccnc3)nn(C)c2C1 | -9.48
O=C(C1CCOC1)N1CCC2(CC1)CN(c1ncccn1)CCO2 (stereo not drawn) | 22.2
Cc1cc(CN2CC[C@H]3C(=O)N(c4ccsc4)CCO[C@H]3C2)no1 | -9.15
c1cc(CN2CCCn3cnc(COCC4CC4)c3C2)co1 | -8.86
COc1cccc(N2CC3(CCN(Cc4nccn4C)C3)CC2=O)c1 (stereo not drawn) | -16.5
O=S1(=O)c2ccccc2C2(CCN(Cc3cccnc3)C2)N1CC1CC1 (stereo not drawn) | -11.1
CN(Cc1ccco1)[C@@H]1CN(Cc2cnn(C)c2)[C@@H]2CCCO[C@H]12 | -12
CN(Cc1ccco1)[C@@H]1CN(CC2CCOCC2)[C@@H]2CCCO[C@H]12 | -11.5
O=C(c1ccncc1)N1CCCn2c(CN3CCCC3)nnc2C1 | -9.38
Cc1ccc(N2CCO[C@H]3CN(Cc4cc(C)on4)CC[C@H]3C2=O)cn1 | -9.06
COCCN1CCN(Cc2c(C)noc2C)Cc2cccnc21 | -4.72
O=C(NCc1cccnc1)[C@@H]1C[C@H]2[C@H](CCN2c2ncccn2)O1 | -3
